Reference: publication PMC12040169 (PLOS Biology, 2025)

Assay: in vitro
Settings: human, hela cells, % viability

Row | Compound | viability at 28.5 h, 10 µM [%]
1 | O=C(C1CC1)N1CCC[C@H]1Cn1nc(-c2ccc(F)cc2)ccc1=O [CBK284252] | 79.8
2 | COc1cccc(CN2CCN(C(=O)c3cc(C)[nH]c3C)[C@@H](C)C2)c1 [CBK284255] | 99.1
3 | COC(=O)[C@H]1CCc2ccccc2N1C(C)=O [CBK284256] | 90.2
4 | COC(=O)[C@H]1CCc2ccccc2N1C(=O)c1ccco1 [CBK284259] | 84.5
5 | Cc1ncsc1C(=O)N1CCC[C@H](C(=O)c2cccs2)C1 [CBK284260] | 80.2
6 | COc1cccc(CN2CCN(Cc3ccco3)[C@@H](C)C2)c1 [CBK284265] | 80.3
7 | COc1cccc(CN2CCN(C(=O)N3CCCCC3)[C@@H](C)C2)c1 [CBK284266] | 95
8 | CCN(CC)C(=O)N1CCN(Cc2cccc(OC)c2)C[C@@H]1C [CBK284268] | 78.8
9 | O=C(NCc1ccco1)[C@@H]1C=CCN1C(=O)Nc1ccccc1Cl [CBK284269] | 84.3
10 | CC(C)[C@H]1CN(Cc2ccco2)CCN1Cc1ccco1 [CBK284271] | 79.3
11 | CC(C)[C@H]1CN(Cc2ccco2)CCN1C(=O)N1CCCCC1 [CBK284272] | 87.6
12 | CC(C)[C@H]1CN(Cc2ccco2)CCN1C(=O)N1CCOCC1 [CBK284273] | 82.2
13 | CC(C)[C@H]1CN(Cc2ccco2)CCN1C(=O)NCc1ccccc1 [CBK284274] | 99.6
14 | CC(C)[C@H]1CN(Cc2ccco2)CCN1Cc1ccccn1 [CBK284275] | 112
15 | O=C(NC1CC1)[C@@H]1C=CCN1C(=O)Nc1ccccc1C(F)(F)F [CBK284276] | 98.1
16 | CC(C)(C)OC(=O)N1CCC[C@H]1C(=O)c1cccnc1 [CBK284280] | 99.3
17 | Cc1c(C(=O)N2CCC[C@H]2[C@H](O)c2nccs2)oc2ccccc12 [CBK284281] | 100
18 | CC(C)(C)OC(=O)N1CCC[C@@H]([C@H](O)c2nccs2)C1 [CBK284283] | 81
19 | CC(C)(C)OC(=O)N1CCC[C@@H](C(=O)c2cccnc2)C1 [CBK284284] | 98.2
20 | O=C(c1cc2c(s1)CCC2)N1CCC[C@H]1[C@H](O)c1nccs1 [CBK284287] | 92.5
21 | O=C(c1ccco1)N1CCC[C@@H]1[C@@H](O)c1cccs1 [CBK284291] | 80.7
22 | O=C(NCc1ccco1)[C@@H]1C=CCN1C(=O)NCc1ccccc1 [CBK284293] | 93
23 | CC[C@H](Cn1nc(-c2cccs2)ccc1=O)NC(=O)C(C)C [CBK284296] | 93.7

Row | Compound | viability at 28.5 h, 10 µM [%]
24 | CC(C)[C@@H](Cn1nc(-c2cccs2)ccc1=O)NC(=O)C1CC1 [CBK284297] | 87.4
25 | COc1ccc(OC[C@@H](N)C(C)C)cc1 [CBK284299] | 93.9
26 | CC[C@H](Cn1ncc2ccccc2c1=O)NC(=O)CC(C)C [CBK284305] | 89.1
27 | COc1ccc(C(=O)[C@@H]2CCCN(C(=O)OC(C)(C)C)C2)cc1 [CBK284308] | 98.7
28 | COc1ccc([C@H](O)[C@@H]2CCCN(C(=O)OC(C)(C)C)C2)cc1 [CBK284311] | 83.4
29 | O=c1ccc(-c2cccs2)nn1C[C@H]1CCCN1 [CBK284313] | 88.6
30 | C=CCNC(=O)[C@@H]1C=CCN1S(=O)(=O)c1ccc(Cl)cc1 [CBK284318] | 90.4
31 | C[C@@H](Cn1nnc2ccccc21)NC(=O)c1cccs1 [CBK284322] | 82.3
32 | O=C(NC1CC1)[C@H]1C=CCN1C(=O)c1cccs1 [CBK284324] | 94.7
33 | O=C(c1ccc(F)cc1)[C@H]1CCCN(C(=O)C2CC2)C1 [CBK284326] | 90.5
34 | COc1ccc(C(=O)[C@H]2CCCN(C(=O)C3CC3)C2)cc1 [CBK284329] | 91.4
35 | O=C(c1ccc(F)cc1)[C@H]1CCCN(C(=O)c2cc[nH]n2)C1 [CBK284331] | 87.3
36 | CC(C)C(=O)N1CCC(n2c(=O)oc3ccc(Cl)cc32)CC1 [CBK284339] | 79.9
37 | O=C(C1CCCO1)N1CCCCCC1c1cc(-c2cccs2)on1 (stereo not shown) [CBK284340] | 97.6
38 | O=c1oc2ccc(Cl)cc2n1C1CCN(Cc2ccco2)CC1 [CBK284342] | 102
39 | O=C(c1ccco1)N1CCC(n2c(=O)oc3ccc(Cl)cc32)CC1 [CBK284343] | 103
40 | O=C(C1CCCC1)N1CCC(n2c(=O)oc3ccc(Cl)cc32)CC1 [CBK284344] | 96.7
41 | O=C(c1cccs1)N1CCC(n2c(=O)oc3ccccc32)CC1 [CBK284347] | 88.2
42 | O=C(C1CCCCC1)N1CCC(n2c(=O)oc3ccccc32)CC1 [CBK284348] | 97.2
43 | O=C(C1CCCC1)N1CCC(n2c(=O)oc3ccccc32)CC1 [CBK284349] | 83.7
44 | O=C1Nc2c(cnn2-c2ccc(F)cc2)C2=NCCN12 [CBK284351] | 104
45 | O=C1NC2(CC3CCC2CC3C(=O)NC2CC2)Oc2ccccc21 (stereo not shown) [CBK284352] | 99.6
46 | Cc1nc2n(n1)CCN(C(=O)Cc1c(C)[nH]c3ccc(F)cc13)C2 [CBK284355] | 83.1
